Experimental data from ChEMBL document CHEMBL6103573, “Discovery of novel thienopyridine indole derivatives as inhibitors of tubulin polymerization targeting the colchicine-binding site with potent anticancer activities” (Eur J Med Chem, 2025).

Tests used:
MGC-803 [1] = experiment: Antiproliferative activity against human MGC-803 cells assessed as inhibition of cell proliferation incubated for 48 hrs by MTT assay; format: functional, cell-based; settings: MGC-803, 48 h
KYSE-450 = experiment: Antiproliferative activity against human KYSE-450 cells assessed as inhibition of cell proliferation incubated for 48 hrs by MTT assay; format: functional, cell-based; settings: KYSE-450, 48 h
HCT-116 = experiment: Antiproliferative activity against human HCT-116 cells assessed as inhibition of cell proliferation incubated for 48 hrs by MTT assay; format: functional, cell-based; settings: HCT-116, 48 h
MGC-803 [2] = experiment: Antitumor activity against human MGC-803 cells xenografted in female BALB/c-nu nude mouse assessed as tumor inhibition rate at 20 mg/kg, ip administrated every other day for 11 times and measured after 21 days relative to control; format: functional; settings: MGC-803, 504 h, time 21 day, read-out: TGI
Tubulin (Homo sapiens) = Tubulin (Homo sapiens) (UniProt P68371+Q9H4B7+P0DPH7+P68366+Q13509+Q71U36+P04350+Q3ZCM7+P07437+P68363+Q9BQE3+Q6PEY2+Q13885+Q9BVA1+Q9BUF5); experiment: Inhibition of tubulin (unknown origin) polymerization assessed as decrease in fluorescence intensity at 3 micromol/L in the presence of GTP by fluorescence microplate reader; format: protein-complex assay; settings: dose 3.0 µmol/L

| Structure (SMILES) | IC50 (MGC-803 [1]) | IC50 (KYSE-450) | IC50 (HCT-116) | inhibition in vivo at 20 mg/kg (MGC-803 [2]) | inhibition (Tubulin (Homo sapiens)) |
| --- | --- | --- | --- | --- | --- |
| CN1CCN(c2nc(N(C)c3ccc4c(ccn4C)c3)c3ccsc3n2)CC1 | 219 nM | 389 nM | 441 nM | – | – |
| CN(c1ccc2c(ccn2C)c1)c1ncnc2ccsc12 | 8.94 nM | 34.6 nM | 17.6 nM | – | – |
| COc1ccc(/C=C\c2cc(OC)c(OC)c(OC)c2)cc1O [COMBRETASTATIN A4] | 6.29 nM | 5.11 nM | 7.38 nM | 27.1% | – |
| CN(c1ccc2c(ccn2Cc2ccccc2)c1)c1nc(Cl)nc2sccc12 | 893 nM | 921 nM | 831 nM | – | – |
| CN(c1ccc2c(ccn2C)c1)c1nc(N2CCSCC2)nc2sccc12 | 113 nM | 289 nM | 129 nM | – | – |
| CCN(c1ccc2c(ccn2C)c1)c1nc(Cl)nc2sccc12 | 3.67 nM | 7.77 nM | 8.28 nM | – | – |
| CN(c1ccc2[nH]ccc2c1)c1nc(Cl)nc2sccc12 | 4.23 nM | 5.12 nM | 7.28 nM | – | – |
| CN(c1ccc2c(ccn2C)c1)c1nc(N2CCCCC2)nc2sccc12 | 14.8 nM | 13.2 nM | 18.2 nM | – | – |
| Cn1ccc2cc(Nc3ncnc4ccsc34)ccc21 | > 5000 nM | > 5000 nM | > 5000 nM | – | – |
| Cn1ccc2cc(Nc3nc(Cl)nc4sccc34)ccc21 | > 5000 nM | > 5000 nM | > 5000 nM | – | – |
| Cn1ccc2cc(Nc3ncnc4sccc34)ccc21 | > 5000 nM | > 5000 nM | > 5000 nM | – | – |
| CN(c1ccc2c(ccn2C)c1)c1nc(N2CCC(Cl)CC2)nc2sccc12 | 18.3 nM | 25.6 nM | 29.3 nM | – | – |
| Cn1ccc2cc(Nc3nc(Cl)nc4ccsc34)ccc21 | > 5000 nM | > 5000 nM | > 5000 nM | – | – |
| CC(=O)N1CCN(c2nc(N(C)c3ccc4c(ccn4C)c3)c3ccsc3n2)CC1 | 308 nM | 413 nM | 487 nM | – | – |
| CCCN(c1ccc2c(ccn2C)c1)c1nc(Cl)nc2sccc12 | 89.2 nM | 122 nM | 125 nM | – | – |
| CC1CCN(c2nc(N(C)c3ccc4c(ccn4C)c3)c3ccsc3n2)CC1 | 8.12 nM | 9.17 nM | 6.21 nM | – | – |

| Structure (SMILES) | IC50 (MGC-803 [1]) | IC50 (KYSE-450) | IC50 (HCT-116) | inhibition in vivo at 20 mg/kg (MGC-803 [2]) | inhibition (Tubulin (Homo sapiens)) |
| --- | --- | --- | --- | --- | --- |
| CN(c1ccc2c(ccn2C)c1)c1nc(N2CCC2)nc2sccc12 | 12.3 nM | 16.1 nM | 18.2 nM | – | – |
| CC(=O)O[C@H]1C(=O)[C@@]2(C)[C@H]([C@H](OC(=O)c3ccccc3)[C@]3(O)C[C@H](OC(=O)[C@H](O)[C@@H](NC(=O)c4ccccc4)c4ccccc4)C(C)=C1C3(C)C)[C@]1(OC(C)=O)CO[C@@H]1C[C@@H]2O | – | – | – | – | Not active; Increase In Fluorescence Intensity Observed |
| CN(c1ccc2c(ccn2C)c1)c1nc(N2CCC(F)CC2)nc2sccc12 | 12.9 nM | 20.7 nM | 17.7 nM | – | – |
| CCn1ccc2cc(N(C)c3nc(Cl)nc4sccc34)ccc21 | 40.2 nM | 39.8 nM | 54.2 nM | – | – |
| COc1cc2c(c(OC)c1OC)-c1ccc(OC)c(=O)cc1[C@@H](NC(C)=O)CC2 [COLCHICINE] | 44.1 nM | 58.7 nM | 49.1 nM | – | – |
| CN(c1ccc2c(ccn2C)c1)c1nc(N2CCOCC2)nc2sccc12 | 70.7 nM | 56.4 nM | 60.2 nM | – | – |
| CC(C)(C)OC(=O)n1ccc2cc(Nc3nc(Cl)nc4sccc34)ccc21 | > 5000 nM | > 5000 nM | > 5000 nM | – | – |
| CN(c1ccc2c(ccn2C)c1)c1nc(N2CCC(C(=O)OC(C)(C)C)CC2)nc2sccc12 | 337 nM | 422 nM | 388 nM | – | – |
| CN(c1ccc2c(ccn2C)c1)c1nc(N2CCC(O)CC2)nc2sccc12 | 20.6 nM | 30.1 nM | 19.6 nM | – | – |
| CCN1CCN(c2nc(N(C)c3ccc4c(ccn4C)c3)c3ccsc3n2)CC1 | 288 nM | 402 nM | 406 nM | – | – |
| CN(c1ccc2c(ccn2C)c1)c1nc(Cl)nc2ccsc12 | 4.18 nM | 16.1 nM | 3.17 nM | – | – |
| CN(c1ccc2c(ccn2C)c1)c1nc(N2CCN(C(=O)OC(C)(C)C)CC2)nc2sccc12 | 589 nM | 597 nM | 682 nM | – | – |
| CN(c1ccc2c(ccn2C)c1)c1nc(Cl)nc2sccc12 | 2.07 nM | 3.28 nM | 2.79 nM | – | – |
| CN(c1ccc2c(ccn2C)c1)c1ncnc2sccc12 | 5.32 nM | 25.1 nM | 5.12 nM | – | – |
| COC1CCN(c2nc(N(C)c3ccc4c(ccn4C)c3)c3ccsc3n2)CC1 | 6.81 nM | 8.33 nM | 6.77 nM | – | – |
| CN(c1ccc2c(ccn2C(=O)OC(C)(C)C)c1)c1nc(Cl)nc2sccc12 | 253 nM | 152 nM | 282 nM | – | – |
